biological target: T1, LpFAT A (FAT A from LEMPA; acyl-ACP thioesterase) (Lemna aequinoctialis, UniProt Z9A7P1QTQ5); experiment: fluorescence polarization competition with fluorescent tracer; format: binding; conditions: 25 mM potassium phosphate pH 7.3, 200 mM NaCl, 0.01% Triton X-100, 2 nM tracer, room temperature; value is negative log
T1 construct: chloroplast transit peptide replaced by N-terminal 6xHis-tag; pET24; E. coli BL21Star(DE3); Ni-NTA purified
T1 sequence (Z9A7P1QTQ5 10-320): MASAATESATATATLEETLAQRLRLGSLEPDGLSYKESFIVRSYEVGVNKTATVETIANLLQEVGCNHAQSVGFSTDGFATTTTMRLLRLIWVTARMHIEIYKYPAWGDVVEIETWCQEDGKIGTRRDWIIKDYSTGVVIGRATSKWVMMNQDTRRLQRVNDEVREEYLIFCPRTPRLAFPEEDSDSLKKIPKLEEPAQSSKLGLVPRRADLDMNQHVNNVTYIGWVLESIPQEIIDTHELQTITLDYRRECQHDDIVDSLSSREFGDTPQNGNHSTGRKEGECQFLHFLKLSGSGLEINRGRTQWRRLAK
Description: fluorescence polarization competition with fluorescent tracer on LpFAT A (FAT A from LEMPA; acyl-ACP thioesterase)

| Compound | pI50 |
| --- | --- |
| Cc1cc2c(nc1-c1ccccc1)NCS2 [7a] | 5.9 |
| Cc1ccsc1C1=NOC(C)(COCc2c(F)cccc2F)C1 (centres unmarked) [compound 2, methiozolin, reference compound] | 7.1 |
| Cc1cc2c(nc1-c1ccccc1F)NCS2 [7b, 5-(2-Fluorophenyl)-6-methyl-2,3-dihydro[1,3]thiazolo[4,5-b]pyridine] | 6.1 |
| Cc1ccccc1-c1nc2c(cc1C)SCN2 [7c] | 6.3 |
| Cc1cc2scnc2nc1-c1ccccc1F [compound 5, 5-(2-fluorophenyl)-6-methyl[1,3]thiazolo[4,5-b]pyridine, reference compound] | 7.2 |
| Cc1ccccc1COC1CC2(C(C)C)CCC1(C)O2 (centres unmarked) [compound 1, cinmethylin, reference compound] | 6.8 |

The next lines start with the values.

| pI50 | Compound |
| --- | --- |
| 5.3 | CC(=O)N1CSc2cc(C)c(-c3ccccc3F)nc21 [16c, 1-[5-(2-fluorophenyl)-6-methyl[1,3]thiazolo[4,5-b]pyridin-3(2H)-yl]ethanone] |
| 4.1 | CC(=O)N1CSc2cc(C)c(-c3ccccc3C)nc21 [16e] |
| 5.5 | CC(=O)N1CSc2cc(C)c(-c3ccccc3)nc21 [16a] |
| 4.8 | Cc1ccccc1-c1nc2c(cc1C)SCN2C(=O)C(C)C [16f] |
| 4.8 | BN1CSc2cc(Br)c(-c3ccccc3C)nc21 [17d, aminoborane 17d] |
| 5.7 | Brc1cc2c(nc1-c1ccccc1)NCS2 [13a, 6-Bromo-5-phenyl-2,3-dihydrothiazolo[4,5-b]pyridine] |
| 5.5 | CC(=O)N1CSc2cc(Br)c(-c3ccccc3)nc21 [14a] |
| 4.7 | Cc1cc2c(nc1-c1ccccc1)N(C(=O)C(C)C)CS2 [16b] |
| 7.3 | Fc1ccccc1-c1nc2c(cc1Br)SCN2 [13b, 6-bromo-5-(2-fluorophenyl)-2,3-dihydro[1,3]thiazolo[4,5-b]pyridine] |
| 4.3 | CC(=O)N1CSc2cc(Br)c(-c3ccccc3C)nc21 [14c] |
| 4.7 | CC(C)C(=O)N1CSc2cc(Br)c(-c3ccccc3F)nc21 [14b] |
| 4.5 | Cc1ccccc1-c1nc2c(cc1Br)SCN2 [13c, 6-bromo-5-(2-tolyl)-2,3-dihydrothiazolo[4,5-b]pyridine] |
| 4.7 | Cc1cc2c(nc1-c1ccccc1F)N(C(=O)C(C)C)CS2 [16d] |
| < 4.0 | Cc1ccccc1-c1nc2c(cc1Br)SCN2B1NB(N)N1 [17e, aminoborane 17e] |
